What was measured:
physchem = settings: buffer
KB cells = test: Cellular data: KB cell viability (Cell titer-glo luminescence); type: cell-based; settings: for EC50: folate free RPMI, 2 h compound incubation, wash, additional 70 h; for % Kill (48 h): percent cell kill at 48 h
Protocol: KB cells in culture were seeded in white clear bottom 96-well tissue culture plate at a density of 5,000 cells per well in a folate free RPMI media with 10% FBS a day prior to compound addition. Cells were counted visually with a hemocytometer and diluted accordingly to obtain the desired density. Cells were allowed to incubate for 24 hours in a humidified CO2 atmosphere in an incubator at 37° C. The spent media was aspirated and replenished with 100 μL of fresh media containing a 3-fold serial dilution of compound with concentrations ranging from 0.3 to 2000 nM and with a final DMSO concentration of 0.1%. Blank wells without compound were also treated with media containing 0.1% DMSO. […] […] At the end of 70 h, the spent media was removed and cells were washed once with fresh media and then suspended 100 μL of PBS. 100 μL of constituted Cell titer-glo reagent was added to each well and luminescence was recorded with a VICTOR plate reader according to manufacturers' protocol.

[1] = Hydrolysis studies of silicon-linker constructs and conjugates (HEPES buffer, UPLC/MS)
[2] = system: Folate receptor alpha expressing KB cells; test: Imaging study demonstrating endocytosis and Si-O cleavage (confocal microscopy); type: cell-based; settings: 50 nM
Protocol: Example 79 as shown above contains a folate receptor targeting ligand, a spacer moiety, a siloxane core and two different fluorescent dyes (BODIPY and rhodamine) positioned on either side of the siloxane core. Folate receptor alpha expressing KB cells were grown in folic acid free media. The cells were incubated for 30 minutes on ice with 50 nM of Example 79, washed with fresh culture medium and then incubated in media at 37° C. for the desired length of time. The fate of both dyes was simultaneously monitored using confocal microscopy using Zeiss LSM 780 laser scanning microscope.

SMILES	half-life (physchem; pH 5)	half-life (physchem; pH 7.4)	further results
C[Si](C)(CCCC(=O)O)O[Si](C)(C)c1ccccc1 [Example 1, 4-(1,1,3,3-Tetramethyl-3-phenyldisiloxanyl)butanoic acid]	1.67 h	> 24 h	
C[Si](C)(COc1ncccn1)O[Si](C)(C)COc1ncccn1 [Example 15, 1,1,3,3-Tetramethyl-1,3-bis((pyrimidin-2-yloxy)methyl)disiloxane]	0.417 h	> 4 h	
CC(=O)NCCC[Si](C)(C)O[Si](C)(C)CCCn1cc(-c2ccccc2)nn1 [Example 69, N-(3-(1,1,3,3-tetramethyl-3-(3-(4-phenyl-1H-1,2,3-triazol-1-yl)propyl)disiloxanyl)propyl)acetamide]	4 h	> 6 h	
Cc1cc(C)nc(SC[Si](C)(C)O[Si](C)(C)C)n1 [Example 9, 4,6-Dimethyl-2-(((1,1,3,3,3-pentamethyldisiloxanyl)methyl)thio)pyrimidine]	0.417 h	40 h	
C[Si](C)(C)O[Si](C)(C)CSc1cnccn1 [Example 31, 2-(((1,1,3,3,3-pentamethyldisiloxanyl)methyl)thio)pyrazine]	0.5 h		
CC(=O)NCCC[Si](C)(C)O[Si](C)(C)CSc1ncc(Cn2cc(-c3ccc(COCC(COCc4ccc(-c5cn(Cc6cnc(SC[Si](C)(C)O[Si](C)(C)CCCNC(C)=O)nc6)nn5)cc4)(COCc4ccc(-c5cn(Cc6cnc(SC[Si](C)(C)O[Si](C)(C)CCCNC(C)=O)nc6)nn5)cc4)NC(=O)OC(C)(C)C)cc3)nn2)cn1 [Example 73, tert-butyl(1,3-bis((4-(1-((2-(((3-(3-acetamidopropyl)-1,1,3,3-tetramethyldisiloxanyl)methyl)thio)pyrimidin-5-yl)methyl)-1H-1,2,3-triazol-4-yl)benzyl)oxy)-2-(((4-(1-((2-(((3-(3-acetamidopropyl)-1,1,3,3-tetramethyldisiloxanyl)methyl)thio)pyrimidin-5-yl)methyl)-1H-1,2,3-triazol-4-yl)benzyl)oxy)methyl)propan-2-yl)carbamate]	18 h	> 18 h	
CC[C@]1(O)C[C@@H]2C[N@@](CCc3c([nH]c4ccccc34)[C@@](C(=O)OC)(c3cc4c(cc3OC)N(C)[C@H]3[C@@](O)(C(=O)NCCC[Si](C)(C)O[Si](C)(C)CSc5ncc(Cn6cc(COCCOCCOCCOCCOCCOCCNC(=O)CC[C@H](NC(=O)c7ccc(NCc8cnc9nc(N)[nH]c(=O)c9n8)cc7)C(=O)O)nn6)cn5)[C@H](O)[C@]5(CC)C=CCN6CC[C@]43[C@@H]65)C2)C1 [Example 80]			EC50 (KB cells): ~265 nM; % Kill (48 h) (KB cells): 84%; half-life ([1]; pH 5): 0.75 h; half-life ([1]; pH 7.4): 24 h
CCOC(=O)CCC[Si](C)(C)O[Si](C)(C)CCCC(=O)O [Example 7, 4-(3-(4-ethoxy-4-oxobutyl)-1,1,3,3-tetramethyldisiloxanyl)butanoic acid]	0.333 h	> 24 h	
C[Si](C)(C)O[Si](C)(C)CSc1ncccn1 [Example 8, 2-(((1,1,3,3,3-Pentamethyldisiloxanyl)methyl)thio)pyrimidine]	0.0833 h	24 h	
CC[C@]1(O)C[C@H]2CN(CCc3c([nH]c4ccccc34)[C@@](C(=O)OC)(c3cc4c(cc3OC)N(C)[C@H]3[C@@](O)(C(=O)NCCC[Si](C)(C)O[Si](C)(C)CSc5ncc(Cn6cc(COCC(COCc7cn(Cc8cnc(SC[Si](C)(C)O[Si](C)(C)CCCNC(=O)[C@@]9(O)[C@H](O)[C@]%10(CC)C=CCN%11CC[C@@]%12(c%13cc([C@@]%14(C(=O)OC)C[C@@H]%15CN(CCc%16c%14[nH]c%14ccccc%16%14)C[C@](O)(CC)C%15)c(OC)cc%13N(C)[C@@H]9%12)[C@@H]%11%10)nc8)nn7)(COCc7cn(Cc8cnc(SC[Si](C)(C)O[Si](C)(C)CCCNC(=O)[C@@]9(O)[C@H](O)[C@]%10(CC)C=CCN%11CC[C@@]%12(c%13cc([C@@]%14(C(=O)OC)C[C@@H]%15CN(CCc%16c%14[nH]c%14ccccc%16%14)C[C@](O)(CC)C%15)c(OC)cc%13N(C)[C@@H]9%12)[C@@H]%11%10)nc8)nn7)NC(=O)CCOCCOCCOCCOCCOCCOCCNC(=O)CC[C@H](NC(=O)c7ccc(NCc8cnc9nc(N)[nH]c(=O)c9n8)cc7)C(=O)O)nn6)cn5)[C@H](O)[C@]5(CC)C=CCN6CC[C@]43[C@@H]65)C2)C1 (stereo partly shown) [Example 83]			half-life ([1]; pH 7.4): > 24 h
C[Si](C)(C)O[Si](C)(C)CS(=O)(=O)c1ncccn1 [Example 10, 2-(((1,1,3,3,3-Pentamethyldisiloxanyl)methyl)sulfonyl)pyrimidine]	0.583 h	0.583 h	
C[Si](C)(C)O[Si](C)(C)CSc1nccc(C(F)(F)F)n1 [Example 28, 2-(((1,1,3,3,3-pentamethyldisiloxanyl)methyl)thio)-4-(trifluoromethyl)pyrimidine]	> 2 h		
CC[C@]1(O)C[C@H]2CN(CCc3c([nH]c4ccccc34)[C@@](C(=O)OC)(c3cc4c(cc3OC)N(C)[C@H]3[C@@](O)(C(=O)NCCC[Si](C)(C)O[Si](C)(C)CSc5ncc(COCCOCCOCCn6cc(COCC(COCc7cn(CCOCCOCCOCc8cnc(SC[Si](C)(C)O[Si](C)(C)CCCNC(=O)[C@@]9(O)[C@H](O)[C@]%10(CC)C=CCN%11CC[C@@]%12(c%13cc([C@@]%14(C(=O)OC)C[C@@H]%15CN(CCc%16c%14[nH]c%14ccccc%16%14)C[C@](O)(CC)C%15)c(OC)cc%13N(C)[C@@H]9%12)[C@@H]%11%10)nc8)nn7)(COCc7cn(CCOCCOCCOCc8cnc(SC[Si](C)(C)O[Si](C)(C)CCCNC(=O)[C@@]9(O)[C@H](O)[C@]%10(CC)C=CCN%11CC[C@@]%12(c%13cc([C@@]%14(C(=O)OC)C[C@@H]%15CN(CCc%16c%14[nH]c%14ccccc%16%14)C[C@](O)(CC)C%15)c(OC)cc%13N(C)[C@@H]9%12)[C@@H]%11%10)nc8)nn7)NC(=O)CCOCCOCCOCCOCCOCCOCCNC(=O)CC[C@H](NC(=O)c7ccc(NCc8cnc9nc(N)[nH]c(=O)c9n8)cc7)C(=O)O)nn6)cn5)[C@H](O)[C@]5(CC)C=CCN6CC[C@]43[C@@H]65)C2)C1 (stereo partly shown) [Example 82]			EC50 (KB cells): ~193 nM; % Kill (48 h) (KB cells): 80%; half-life ([1]; pH 5): 1 h; half-life ([1]; pH 7.4): > 24 h
CC(C)C(=O)NCCC[Si](C)(C)O[Si](C)(C)CSc1ncccn1 [Example 34, N-(3-(1,1,3,3-Tetramethyl-3-((pyrimidin-2-ylthio)methyl)disiloxanyl)propyl) isobutyramide]	0.0333 h	> 2 h	
CC(=O)NCCC[Si](C)(C)O[Si](C)(C)CSc1ncc(COCCOCCOCCn2cc(COCC(COCc3cn(CCOCCOCCOCc4cnc(SC[Si](C)(C)O[Si](C)(C)CCCNC(C)=O)nc4)nn3)(COCc3cn(CCOCCOCCOCc4cnc(SC[Si](C)(C)O[Si](C)(C)CCCNC(C)=O)nc4)nn3)NC(C)=O)nn2)cn1 [Example 63]	1 h	> 18 h	
Cc1ccnc(SC[Si](C)(C)O[Si](C)(C)C)n1 [Example 27, 4-Methyl-2-(((1,1,3,3,3-pentamethyldisiloxanyl)methyl)thio)pyrimidine]	0.2 h	> 2 h	
CC[C@]1(O)C[C@@H]2CN(CCc3c([nH]c4ccccc34)[C@@](C(=O)OC)(c3cc4c(cc3OC)N(C)[C@H]3[C@@](O)(C(=O)NCCC[Si](C)(C)O[Si](C)(C)CSc5ncc(Cn6cc(C[C@H](NC(=O)[C@H](CC(=O)O)NC(=O)[C@H](CC(=O)O)NC(=O)[C@H](CCCNC(=N)N)NC(=O)[C@H](CC(=O)O)NC(=O)CC[C@H](NC(=O)c7ccc(NCc8cnc9nc(N)[nH]c(=O)c9n8)cc7)C(=O)O)C(=O)O)nn6)cn5)[C@H](O)[C@]5(CC)C=CCN6CC[C@]43[C@@H]65)C2)C1 [Example 81]			% Kill (48 h) (KB cells): 86%; half-life ([1]; pH 5): 0.583 h; half-life ([1]; pH 7.4): 24 h
CCN(CC)c1ccc2c(-c3ccc(S(=O)(=O)NCc4cnc(SC[Si](C)(C)O[Si](C)(C)CCCN5C(=O)CC(SC[C@H](NC(=O)[C@H](CNC(=O)CCC6=[N+]7C(=Cc8c(C)cc(C)n8[B-]7(F)F)C=C6)NC(=O)[C@H](CC(=O)O)NC(=O)CC[C@H](NC(=O)c6ccc(NCc7cnc8nc(N)[nH]c(=O)c8n7)cc6)C(=O)O)C(=O)O)C5=O)nc4)cc3S(=O)(=O)[O-])c3ccc(=[N+](CC)CC)cc-3oc2c1 (stereo partly shown) [Example 79]			Cleavage of the siloxane core (color separation of the two fluorescent dyes) ([2]; 37° C., t=30 min): cleavage of the siloxane core was observed; Endocytosis of intact conjugate into the cell ([2]; 37° C., t=30 min): endocytosis of intact Example 79 into the cell was observed; Binding to the folate receptor on the cell surface (colocalization of dyes) ([2]; 30 minutes on ice, t=0): bound to the folate receptor on the cell surface; half-life ([1]; pH 5): 1.67 h; half-life ([1]; pH 7.4): > 18 h
CC(=O)NCCC[Si](C)(C)O[Si](C)(C)CSc1ncc(Cn2cc(-c3ccccc3)nn2)cn1 [Example 62, N-(3-(1,1,3,3-tetramethyl-3-(((5-((4-phenyl-1H-1,2,3-triazol-1-yl)methyl)pyrimidin-2-yl)thio)methyl)disiloxanyl)propyl)acetamide]	0.333 h	> 3 h	

— patent US9931407B2, “Silicon based drug conjugates and methods of using same” (BlinkBio, Inc., priority 2015, dated 2018)
